# Key:
# [1] = biological target: purified recombinant human PDE5 (Homo sapiens, UniProt O76074); test: in vitro PDE5 inhibition assay measuring GMP production from cGMP (HPLC-UV-MS); format: biochemical
# Protocol: STRENDA guidelines were considered in the description of the following enzyme activity assays. PDE5 inhibition and kinetics assays were carried out according to the method of Kincaid and Manganiello [31] and Dell’Agli et al. 1 nM recombinant human PDE5 (catalytic domain consisting of amino acids 537–875, Abcam, ab125581) was pre-incubated with PDE5 inhibitors (synthesized in-house as described above or purchased from Selleck Chemicals) in 40 mM tris-hydrochloric acid, pH 7.8, containing 10 mM MgCl2. […]. PDE5 inhibitors were added to each reaction using a Hewlett-Packard D300 Digital Dispenser (Tecan). Maximum DMSO concentration was 0.1% of the final reaction volume for all samples. After incubation at 25 °C for 5 minutes to allow interaction between PDE5 and drugs, the reaction was started with the addition of 0.3 μM cGMP (Enzo Life Sciences, Inc.) and incubated at 25 °C for 15 minutes. The final reaction volume was 100 μL. Reactions were stopped with the addition of 100 μL of 0.1 M HCl and neutralized by adding 0.1 M NaOH until the pH was 7. […] The amount of GMP produced was measured by HPLC-UV-MS as described in the general procedures. Reaction mixture components were separated with a ramp gradient of solvent A and B run at a flow rate of 0.5 mL/min as follows: 0–4 minutes 0% B, 4–7 minutes 0–95% B, 7–8 minutes 95% B, 8–11.1 minutes 0% B. GMP was measured using selected reaction monitoring in positive mode for a centroid center mass of 152.
# A calibration curve using known concentrations of GMP was generated using the HPLC-UV-MS method described above to quantify the absolute amount of GMP in each reaction (S13 Fig). The linear range was from 5.9 nM to 3 μM. The limit of detection (LOD), defined as the lowest concentration producing a detectable peak above background, was 0.1 nM. The lower limit of quantification (LLOQ), defined as the lowest concentration used to generate a standard curve with r^2 > 0.95, was 5.9 nM. The upper limit of quantification (ULOQ), defined as the highest concentration used to generate a standard curve with r^2 > 0.95, was 3 μM. A GMP calibration curve was generated with each individual run of the HPLC-UV-MS.
# To measure the IC50 as a result of treatment with each icariin analog, the in vitro inhibition enzyme assay as described above was performed, and GMP levels were normalized to no-drug controls and multiplied by 100 to obtain the percent PDE5 activity. IC50 mean ± SEM values were determined by nonlinear-regression fitting of the percent PDE5 activity data using the [inhibitor] vs response–variable slope (four parameters) equation in Prism (version 7.0a and version 8). Top value was constrained to 100, all other parameters were unconstrained. To obtain the dose-response curves for visual confirmation of the best-fit line, we executed a nonlinear regression fitting using the log(inhibitor) vs. response—variable slope (four parameters) equation in Prism. […] AICc analysis (built into Prism) was used to confirm the best-fitting inhibition model. […] Inhibition models were also compared via visual inspection of the fit of the calculated curves on the Michaelis-Menten plots.
# [2] = mitochondrial viability assay with resazurin; format: cell-based, human; settings: human, four cell lines, 0.01–10 μM, even at the highest concentration tested (10 μM)
# Protocol: The human cell lines SH-SY5Y (SY5Y, ATCC CRL-2266), SK-MEL-5 (SKMEL-5, ATCC HTB-70), and NCI-H187 (H187, ATCC CRL-5804) were cultured in RPMI medium supplemented with 10% FBS and no antibiotics. These three cell lines were generously provided by the laboratory of Susan Lindquist via Luke Whitesell (currently at the University of Toronto, Toronto, ON, Canada). BJ-hTERT (described in [27], generously provided by Robert Weinberg, Whitehead Institute, Cambridge MA, USA) was cultured in 4:1 DMEM:M199 medium supplemented with 15% FBS and no antibiotics. All cell lines were grown and assayed at 37 °C, 5% CO2. All cell lines were screened for mycoplasma contamination by PCR (Mycoscope Detection Kit, Fisher Scientific) before use in assays.
# For viability assays, cells were plated in black, clear bottom 384-well tissue culture-treated plates (Corning) and incubated overnight in the media described above but supplemented with 50 U/mL penicillin-streptomycin antibiotic (Life Technologies). Then, DMSO (no drug controls) and PDE5 inhibitors (0.01–10 μM; synthesized as described above or purchased from Selleck Chemicals) were added using a Hewlett-Packard D300 Digital Dispenser (Tecan) and incubated for 3 days. Maximum DMSO concentration was normalized to 0.1% of the total well volume for all wells. Resazurin (R & D Systems) was diluted 1:20 into each well and incubated for up to 4 hours. Fluorescence was read in a Tecan plate reader (excitation = 570 nm, emission = 585 nm). Wells treated with PDE5 inhibitors were normalized against control wells treated with DMSO to measure percent mitochondrial viability (100 = no effect on mitochondrial viability).
# [3] = tested on: human PDE5; settings: cited from earlier work
# [4] = tested on: cavernous smooth muscle cells; design: method as in PMID 17169663; settings: cells isolated from mice; cited from earlier work
smiles,measurement,setting,value
COc1ccc(-c2oc3c(CC=C(C)C)c(O[C@@H]4O[C@H](CO)[C@@H](O)[C@H](O)[C@H]4O)cc(O)c3c(=O)c2O[C@@H]2O[C@@H](C)[C@H](O)[C@@H](O)[C@H]2O)cc1 [icariin],IC50,[1],6 ± 1 µM
same,"viability at 3 days, 10 μM",[2],> 70%
same,mode of inhibition,[3],competitively inhibit PDE5
same,IC50,[3]; human PDE5,1 to 6 µM
same,effect on cGMP levels,[4],increase cGMP levels

# — article PMC6754136 (PLoS ONE, 2019)
